# Experiments:
# [1] = test system: optic nerve head tissue blood flow; experiment: Pharmacological Test 4: optic nerve head tissue blood flow (laser speckle flowgraphy) after repeated instillation of omidenepag isopropyl to rabbits; assay type: in vivo, rabbit; conditions: for Base-Corrected Optic Nerve Head Tissue Blood Flow Change Rate (%): 0.002% (w/v) (20 μg/mL), 50 μL instilled once a day for 14 days, rabbit, average of four animals
# Protocol: In order to find a new medicinal use of omidenepag, an ester thereof, or a salt thereof, the action of increasing tissue blood flow in the optic nerve head in the case of instilling omidenepag isopropyl to rabbits was examined.
# Omidenepag isopropyl, polyoxyl 35 castor oil, glycerin, sodium citrate, sodium edentate, and benzalkonium chloride were added and dissolved into purified water to adjust the pH. Thereafter, purified water was added to adjust the total volume, thereby preparing a 0.002 w/v % omidenepag isopropyl solution (omidenepag isopropyl sample 3).
# The base D and omidenepag isopropyl sample 3 as test compound solutions, each at 50 μL, were instilled (ophthalmic solution, once a day, repeated instillation for 14 days) to examine the change in optic nerve head tissue blood flow. In addition, pigmented rabbits (strain: Dutch, sex: male, four animals per group) were used as experimental animals.
# 1) After holding the above experimental animals, one drop (about 0.03 mL) of a 0.4% tropicamide ophthalmic solution (trade name: Mydrin-M ophthalmic solution 0.4%) was instilled into the optic nerve head tissue blood flow measurement eye to fully dilate the pupil. Thereafter, laser speckle flowgraphy (LSFG-NAVI manufactured by Softcare Co., Ltd.) was used to measure the tissue blood flow in the optic nerve head of the measurement eye.
# 2) The test compound solutions were instilled at 50 μL into one eye (optic nerve head tissue blood flow measurement eye) of each of the experimental animals once a day for 14 days (the contralateral eye was untreated).
# 3) At 1 hour and 2 hours after administration of each test compound solution at day 1, day 7, and day 14 after administration of each test compound solution, the optic nerve head tissue blood flow of the optic nerve head tissue blood flow measurement eye was measured.
# (a) The ratio of the optic nerve head tissue blood flow after passage of each of the time periods of 1 hour and 2 hours after administration of each test compound solution at day 1, day 7, and day 14 after the start of administration of each test compound solution to the optic nerve head tissue blood flow immediately before administration (optic nerve head tissue blood flow change rate (%)) was calculated. [Optic Nerve Head Tissue Blood Flow Change Rate (%) After Passage of Each Time Period After Administration]=[Optic Nerve Head Tissue Blood Flow After Passage of Each Time Period After Administration]/[Optic Nerve Head Tissue Blood Flow Immediately Before Administration]×100
# (b) For each time period after administration, the difference (base-corrected optic nerve head tissue blood flow change rate (%)) was calculated between the optic nerve head tissue blood flow change rate (%) of the group administered with the base D simultaneously carried out and the optic nerve head tissue blood flow change rate (%) of the group administered with omidenepag isopropyl sample 3. [Base-Corrected Optic Nerve Head Tissue Blood Flow Change Rate (%) After Passage of Each Time Period]=[Optic Nerve Head Tissue Blood Flow Change Rate (%) After Passage of Each Time Period After Administration of Omidenepag Isopropyl Sample 3]−[Optic Nerve Head Tissue Blood Flow Change Rate (%) After Passage of Each Time Period After Administration of Base D]
# (c) The base-corrected optic nerve head tissue blood flow change rate (%) of (a) and (b) above was calculated for four experimental animals in each group, and the average thereof was defined as the value of the “base-corrected optic nerve head tissue blood flow change rate (%).”
# retinal blood vessels = experiment: Pharmacological Test 2: retinal vasodilatory action (retinal vascular diameter) after intravitreal administration of omidenepag isopropyl to rabbits; assay type: in vivo, rabbit; conditions: for Base-Corrected Retinal Vascular Diameter Change Rate (%) 1 Hour After Administration / Base-Corrected Retinal Vascular Diameter Change Rate (%) 2 Hours After Administration / Base-Corrected Retinal Vascular Diameter Change Rate (%) 6 Hours After Administration / Base-Corrected Retinal Vascular Diameter Change Rate (%) 24 Hours After Administration / Base-Corrected Retinal Vascular Diameter Change Rate (%) 48 Hours After Administration: 20 μL intravitreal single injection, pigmented rabbits
# Protocol: (a) The fundus images captured immediately before the administration, 1 hour, 2 hours, 6 hours, and 24 hours after the administration were used to measure, as the vascular diameters, (i) the vascular diameter of the retinal artery on the nose side, (ii) the vascular diameter of the retinal artery on the ear side, and (iii) the optic nerve head diameter (longitudinal diameter passing through the center of the optic nerve head).
# (b) The average value of (i) the vascular diameter of the retinal artery on the nose side and (ii) the vascular diameter of the retinal artery on the ear side measured from the fundus images for each time period was divided by (iii) the optic nerve head diameter to calculate the corrected retinal vascular diameter. [Corrected Retinal Vascular Diameter]=(([(i) Vascular Diameter of Retinal Artery on Nose Side]+[(ii) Vascular Diameter of Retinal Artery on Ear Side])/2)/([(iii) Optic Nerve Head Diameter])
# (c) The ratio of the corrected retinal vascular diameter after passage of each of the time periods of 1 hour, 2 hours, 6 hours, and 24 hours after administration to the corrected retinal vascular diameter immediately before administration (retinal vascular diameter change rate (%)) was calculated. [Retinal Vascular Diameter Change Rate (%) After Passage of Each Time Period After Administration]=[Corrected Retinal Vascular Diameter After Passage of Each Time Period After Administration]/[Corrected Retinal Vascular Diameter Immediately Before Administration]×100
# (d) For each time period after administration, the difference (base-corrected retinal vascular diameter change rate (%)) was calculated between the retinal vascular diameter change rate (%) of the group administered with the base simultaneously carried out and the retinal vascular diameter change rate (%) of the groups administered with samples (omidenepag samples 1 and 2, and CP-544326 samples 1 and 2). [Base-Corrected Retinal Vascular Diameter Change Rate (%) After Passage of Each Time Period]=[Retinal Vascular Diameter Change Rate (%) After Passage of Each Time Period After Administration of Samples]−[Retinal Vascular Diameter Change Rate (%) After Passage of Each Time Period After Administration of Base]
# (e) The base-corrected retinal vascular diameter change rate (%) of (a) to (d) above was calculated for three experimental animals in each group, and the average thereof was defined as the value of the “base-corrected retinal vascular diameter change rate (%).”
# In order to find anew medicinal use of omidenepag, an ester thereof, or a salt thereof, the retinal vasodilatory action in the case of administering omidenepag isopropyl to rabbits was examined.
# Omidenepag isopropyl at 3.98 mg was dissolved in dimethyl sulfoxide to a total volume of 118 μL. Of the total volume, 10 μL was added and dissolved into physiological saline, and an appropriate amount of sodium hydroxide solution was added to adjust the pH of the formulation to 6.4. Thereafter, physiological saline was further added to a total volume of 10 mL to obtain omidenepag isopropyl sample 1 (containing 0.00338% (w/v) (33.8 μg/mL) of omidenepag isopropyl). In addition, the base B was added to 0.1 mL of omidenepag isopropyl sample 1 to a total volume of 10 mL, and omidenepag isopropyl sample 2 was obtained (containing 0.0000338% (w/v) (0.338 μg/mL) of omidenepag isopropyl).
# In the same method as that in Pharmacological Test 1, the base B and omidenepag isopropyl samples 1 and 2, each at 20 μL, were administered intravitreally (injection, single time) to examine the change in retinal vascular diameter. Note that, 1 hour, 2 hours, 6 hours, 24 hours, and 48 hours after administration of each test compound solution, fundus images of the retinal vascular diameter measuring eyes were captured, and the retinal vascular diameters and the like were measured from the obtained fundus images. […]
structure (smiles),measurement,setting,value
"CC(C)OC(=O)CNc1cccc(CN(Cc2ccc(-n3cccn3)cc2)S(=O)(=O)c2cccnc2)n1 [Omidenepag Isopropyl, isopropyl (6-{[4-(pyrazol-1-yl)benzyl](pyridin-3-ylsulfonyl)aminomethyl}pyridin-2-ylamino)acetate]","blood flow increasing action, optic nerve head (in words)","[1]; 0.002 w/v % solution, 50 μL instillation once a day for 14 days, rabbits",good blood flow increasing action
same,Base-Corrected Optic Nerve Head Tissue Blood Flow Change Rate (%),"[1]; Day 1, 1 hour after administration",7.2%
same,Base-Corrected Optic Nerve Head Tissue Blood Flow Change Rate (%),"[1]; Day 1, 2 hours after administration",6.3%
same,Base-Corrected Optic Nerve Head Tissue Blood Flow Change Rate (%),"[1]; Day 7, 1 hour after administration",9.9%
same,Base-Corrected Optic Nerve Head Tissue Blood Flow Change Rate (%),"[1]; Day 7, 2 hours after administration",12.4%
same,Base-Corrected Optic Nerve Head Tissue Blood Flow Change Rate (%),"[1]; Day 14, 1 hour after administration",13.6%
same,Base-Corrected Optic Nerve Head Tissue Blood Flow Change Rate (%),"[1]; Day 14, 2 hours after administration",11.5%
same,Base-Corrected Retinal Vascular Diameter Change Rate (%) 1 Hour After Administration,retinal blood vessels; 0.0000338% (w/v) (0.338 μg/mL),25.1%
same,Base-Corrected Retinal Vascular Diameter Change Rate (%) 2 Hours After Administration,retinal blood vessels; 0.0000338% (w/v) (0.338 μg/mL),34.5%
same,Base-Corrected Retinal Vascular Diameter Change Rate (%) 6 Hours After Administration,retinal blood vessels; 0.0000338% (w/v) (0.338 μg/mL),18.4%
same,Base-Corrected Retinal Vascular Diameter Change Rate (%) 24 Hours After Administration,retinal blood vessels; 0.0000338% (w/v) (0.338 μg/mL),6.8%
same,Base-Corrected Retinal Vascular Diameter Change Rate (%) 48 Hours After Administration,retinal blood vessels; 0.0000338% (w/v) (0.338 μg/mL),1.7%
same,Base-Corrected Retinal Vascular Diameter Change Rate (%) 1 Hour After Administration,retinal blood vessels; 0.00338% (w/v) (33.8 μg/mL),58.4%
same,Base-Corrected Retinal Vascular Diameter Change Rate (%) 2 Hours After Administration,retinal blood vessels; 0.00338% (w/v) (33.8 μg/mL),81.7%
same,Base-Corrected Retinal Vascular Diameter Change Rate (%) 6 Hours After Administration,retinal blood vessels; 0.00338% (w/v) (33.8 μg/mL),73.8%
same,Base-Corrected Retinal Vascular Diameter Change Rate (%) 24 Hours After Administration,retinal blood vessels; 0.00338% (w/v) (33.8 μg/mL),16.0%
same,Base-Corrected Retinal Vascular Diameter Change Rate (%) 48 Hours After Administration,retinal blood vessels; 0.00338% (w/v) (33.8 μg/mL),0.0%
same,durability of retinal vasodilatory action compared with omidenepag (in words),"retinal blood vessels; both 65.0 μM, 24 hours after intravitreal administration, rabbits",amore durable action than omidenepag
same,retinal vasodilatory action (in words),"retinal blood vessels; intravitreal, rabbits",significantly strong retinal vasodilatory action
